Experimental data from PubChem BioAssay AID330 (DTP/NCI, 2004).
Where “and” joins values, the source holds several entries; their conditions need not be identical. Equal values may be shown once. Inconclusive results and toxic doses are left out. The calls were made as follows: active = survival T/C of 150% or more; inactive = T/C below 125% in these data.

Tested on: P388 leukemia ip, CD2F1 mice, survival T/C
Assay: NCI In Vivo Anticancer Drug Screen. Data for tumor model P388 Leukemia (intraperitoneal) in CD2F1 (CDF1) mice
Settings: endpoint: median survival time, higher = longer survival
In short: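 Mice carrying the transplanted tumor received test compound or vehicle. Survival was recorded in each group, and the value is the treated-group measurement divided by that of the vehicle-treated control group.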

[1] = dose: 50.0 mg/kg/injection, schedule: Q01DX005 (ip), vehicle: saline with Tween-80
[2] = dose: 100.0 mg/kg/injection, schedule: Q01DX005 (ip), vehicle: saline with Tween-80
[3] = dose: 200.0 mg/kg/injection, schedule: Q01DX005 (ip), vehicle: saline with Tween-80
[4] = dose: 60.0 mg/kg/injection, schedule: Q01DX005 (ip), vehicle: saline with Tween-80
[5] = dose: 120.0 mg/kg/injection, schedule: Q01DX005 (ip), vehicle: saline with Tween-80
[6] = dose: 240.0 mg/kg/injection, schedule: Q01DX005 (ip), vehicle: saline with Tween-80
[7] = dose: 50.0 mg/kg/injection, schedule: Q01DX009 (ip), vehicle: saline
[8] = dose: 100.0 mg/kg/injection, schedule: Q01DX009 (ip), vehicle: saline

Measured: T/C

CC1=CC(C)C[N+](C)(C)C1 (stereo unspecified)
inactive: dose: 3.12 mg/kg/injection, schedule: Q01DX005 (ip), vehicle: saline 104 % of control | dose: 6.25 mg/kg/injection, schedule: Q01DX005 (ip), vehicle: saline 103 % of control | dose: 12.5 mg/kg/injection, schedule: Q01DX005 (ip), vehicle: saline 100 % of control | dose: 25.0 mg/kg/injection, schedule: Q01DX005 (ip), vehicle: saline 94 % of control

CCC(C)n1c(C)nc2c(N)cc(C(F)(F)F)cc21 (stereo unspecified)
inactive: [1] 97 % of control | [2] 91 % of control | [3] 102 % of control

Nc1ccc(C(=O)CCl)c(Cl)c1
inactive: dose: 12.5 mg/kg/injection, schedule: Q01DX009 (ip), vehicle: Klucel (hydroxypropylcellulose) (HPC) 107 % of control | dose: 25.0 mg/kg/injection, schedule: Q01DX009 (ip), vehicle: Klucel (hydroxypropylcellulose) (HPC) 110 % of control | dose: 50.0 mg/kg/injection, schedule: Q01DX009 (ip), vehicle: Klucel (hydroxypropylcellulose) (HPC) 110 % of control and 116 % of control

COc1nc(NC2OC(CO)C(O)C(O)C2O)c(Cl)c(=O)n1C (stereo unspecified)
inactive: [4] 94 % of control | [5] 93 % of control | [6] 97 % of control

NNC(=O)C(=O)N/N=C(\CC1(O)C(=O)Nc2ccccc21)c1ccccc1O (stereo unspecified)
inactive: [1] 104 % of control | [2] 98 % of control | [3] 103 % of control

CC(=O)OCC1OC(Nc2[nH]c(=O)n(C)c(=O)c2C(=O)CCl)C(OC(C)=O)C(OC(C)=O)C1OC(C)=O (stereo unspecified)
inactive: [4] 114 % of control | [5] 105 % of control | [6] 124 % of control

O=C(N1CCC(CCCC2CCN(C(=O)C(F)(F)C(F)(F)C(F)(F)C(F)(F)C(F)(F)C(F)(F)C(F)(F)F)CC2)CC1)C(F)(F)C(F)(F)C(F)(F)C(F)(F)C(F)(F)C(F)(F)C(F)(F)F
inactive: [7] 98 % of control | [8] 96 % of control | dose: 200.0 mg/kg/injection, schedule: Q01DX009 (ip), vehicle: saline 95 % of control

O=c1[nH]c2ccccc2c(=O)n1-c1ccco1
inactive: dose: 100.0 mg/kg/injection, schedule: Q04DX002 (ip), vehicle: saline 100 % of control | dose: 200.0 mg/kg/injection, schedule: Q04DX002 (ip), vehicle: saline 102 % of control | dose: 400.0 mg/kg/injection, schedule: Q04DX002 (ip), vehicle: saline 101 % of control

Cc1cc(O)c(C(c2ccc(C#N)cc2)c2c(O)cc(C)[nH]c2=O)c(=O)[nH]1
inactive: dose: 50.0 mg/kg/injection, schedule: Q01DX009 (ip), vehicle: saline with Tween-80 95 % of control | dose: 100.0 mg/kg/injection, schedule: Q01DX009 (ip), vehicle: saline with Tween-80 94 % of control | dose: 200.0 mg/kg/injection, schedule: Q01DX009 (ip), vehicle: saline with Tween-80 98 % of control

CCC1(c2ccc(N)cc2)CCC(=O)NC1=O (stereo unspecified)
inactive: dose: 50.0 mg/kg/injection, schedule: Q01DX005 (ip), vehicle: Klucel (hydroxypropylcellulose) (HPC) 91 % of control | dose: 100.0 mg/kg/injection, schedule: Q01DX005 (ip), vehicle: Klucel (hydroxypropylcellulose) (HPC) 100 % of control

S=c1[nH]nc2nc3c4ccccc4c4ccccc4c3nn12
inactive: dose: 50.0 mg/kg/injection, schedule: Q04DX003 (ip), vehicle: saline 95 % of control | dose: 100.0 mg/kg/injection, schedule: Q04DX003 (ip), vehicle: saline 95 % of control | dose: 200.0 mg/kg/injection, schedule: Q04DX003 (ip), vehicle: saline 93 % of control

CCOC(=O)NN(C(=O)OCC)C1CCN=C1C(=O)OC (stereo unspecified)
inactive: dose: 50.0 mg/kg/injection, schedule: Q01DX005 (ip), vehicle: saline 98 % of control | dose: 100.0 mg/kg/injection, schedule: Q01DX005 (ip), vehicle: saline 88 % of control | dose: 200.0 mg/kg/injection, schedule: Q01DX005 (ip), vehicle: saline 98 % of control

N#CC1CCCC[N-]1.[NH-]CC[N-]CC[NH-].[Pt+4] (stereo unspecified)
inactive: dose: 6.25 mg/kg/injection, schedule: Q01DX009 (ip), vehicle: saline 93 % of control | dose: 12.5 mg/kg/injection, schedule: Q01DX009 (ip), vehicle: saline 97 % of control | dose: 25.0 mg/kg/injection, schedule: Q01DX009 (ip), vehicle: saline 100 % of control | [7] 97 % of control | [8] 89 % of control
